Measurements as given in US6407079B1, “Pharmaceutical compositions containing drugs which are instable or sparingly soluble in water and methods for their preparation” (Janssen Pharmaceutica N.V., priority 1985, dated 2002).
Converted amounts (≈) assume the structure as drawn. Where two headings read alike, the source gives them in different places.

Experiments:
[1] = 24 h
physchem = settings: for solubility at 24 h: 25 °C, thermodynamic from solid; for Ratio S1:S2: 24 h, pH 6.6
[2] = Solubility of drugs in 4% aqueous hydroxypropyl-methyl-β-cyclodextrin solution (Example 2B); settings: in water, 4% hydroxypropyl-methyl-β-cyclodextrin (DS 0.96; MS 0.43)
[3] = Storage stability of indometacin solutions, HPLC (Example 3); assay type: physicochemical; settings: for Indometacin content: 21° C.
Description: In 10 ml phosphate buffer solution 0.7 g hydroxyethyl-β-cyclodextrin (MS 0.43) were dissolved together with 0.04 g indometacin at 25° C. until a clear solution was formed. […] (B). In a parallel test a saturated indometacin solution in a phosphate buffer solution (0.21 mg/ml) was stored under the same conditions (A). The great improved stability of the composition according to the invention is apparent.

[4] = German Offenlegungsschrift 31 18 218; cited from earlier work
[5] = Dissolution rate of medroxyprogesterone acetate from tablet (Example 5); assay type: physicochemical; settings: tablet with hydroxyethyl-β-cyclodextrin (MS 0.43), 5 mg drug per unit dose
Description: In 100 ml water 7 g hydroxyethyl-β-cyclodextrin (MS 0.43) and 0.5 g medroxyprogesterone acetate were dissolved. The water was then evaporated in a rotation evaporator The residue (75 mg) was powdered and after addition of 366 mg calcium hydrogen phosphate.2H2O, 60 mg corn starch, 120 mg cellulose powder (microcrystalline), 4.2 mg highly dispersed silica (AEROSIL® 200) and 4.8 mg magnesium stearate tablets with a weight of 630.0 mg and comprising 5 mg drug per unit dose were made. The dissolution rate of the medroxyprogesterone acetate from this formulation is 21 times higher when compared to a tablet comprising the same inert ingredients without addition of the β-cyclodextrin ether.

[6] = cited from earlier work
rats = assay type: in vivo
Description: The acute intravenous toxicity of some β-cyclodextrins was tested on rats with the following results.

human red blood cells = experiment: Haemolytic effect on human red blood cells; assay type: cell-based; settings: 30 minutes at 37° C., optical density at 540 nm
Description: The haemolytic effect of the methylether according to German Offenlegungsschrift 31 18 218 was compared to that of an ether used according to the invention. To this end 100 μl of a physiological sodium chloride solution with a cyclodextrin content of 10%, 800 μl of a buffer (400 mg MOPS, 36 mg Na2HPO4.2H2O, 1,6 g NaCl in 200 ml H2O) and 100 μl of a suspension of human red blood cells (three times washed with sodium chloride solution) were mixed for 30 minutes at 37° C. Thereafter the mixture was centrifuged and the optical density was determined at 540 nm.
a) 100 μl sodium chloride solution+buffer+0% haemolysis
b) 900 μl water→100% haemolysis

[7] = pH 6.6, aqueous with cosolvent or surfactant or cyclodextrin

COc1cc(N)c(Cl)cc1C(=O)NC1CCN(CCCOc2ccc(F)cc2)CC1OC (stereo not shown) [Cisapride]
R, ratio of saturation solubility with and without β-cyclodextrin derivative [1]: 3

C[C@@H]1C[C@H]2[C@@H]3CCC4=CC(=O)C=C[C@]4(C)[C@@]3(F)[C@@H](O)C[C@]2(C)[C@@]1(O)C(=O)CO [Dexamethasone]
solubility at 24 h (physchem; pH 6.6, aqueous buffer): 83 µg/mL (≈ 0.211 mM)
solubility at 24 h (physchem; [7]): 14300 µg/mL (≈ 36.4 mM)

CCOC(=O)c1cncn1[C@H](C)c1ccccc1 [Etomidate]
R, ratio of saturation solubility with and without β-cyclodextrin derivative [2]: 8.5

COC(=O)Nc1nc2cc(C(=O)c3ccc(F)cc3)ccc2[nH]1 [Flubendazole]
R, ratio of saturation solubility with and without β-cyclodextrin derivative [1]: 30

Fc1ccc(C(c2ccc(F)cc2)N2CCN(C/C=C/c3ccccc3)CC2)cc1 [Flunarizine]
R, ratio of saturation solubility with and without β-cyclodextrin derivative [1]: 18

COc1ccc2c(c1)c(CC(=O)O)c(C)n2C(=O)c1ccc(Cl)cc1 [Indometacine]
solubility at 24 h (physchem; pH 6.6, aqueous buffer): 190 µg/mL (≈ 0.531 mM)
solubility at 24 h (physchem; [7]): 5720 µg/mL (≈ 16 mM)
Ratio S1:S2 (physchem): 1:30.1
Indometacin content ([3]; A: saturated solution in phosphate buffer, 0 weeks): 100.1%
Indometacin content ([3]; A: saturated solution in phosphate buffer, 2 weeks): 91.2%
Indometacin content ([3]; A: saturated solution in phosphate buffer, 4 weeks): 79.1%
Indometacin content ([3]; A: saturated solution in phosphate buffer, 6 weeks): 69.8%
Indometacin content ([3]; A: saturated solution in phosphate buffer, 8 weeks): 64.8%
Indometacin content ([3]; B: with hydroxyethyl-β-cyclodextrin (MS 0.43) in phosphate buffer, 0 weeks): 99.7%
Indometacin content ([3]; B: with hydroxyethyl-β-cyclodextrin (MS 0.43) in phosphate buffer, 2 weeks): 99.9%
Indometacin content ([3]; B: with hydroxyethyl-β-cyclodextrin (MS 0.43) in phosphate buffer, 4 weeks): 98.1%
Indometacin content ([3]; B: with hydroxyethyl-β-cyclodextrin (MS 0.43) in phosphate buffer, 6 weeks): 98.6%
Indometacin content ([3]; B: with hydroxyethyl-β-cyclodextrin (MS 0.43) in phosphate buffer, 8 weeks): 98.4%
Concentration of saturated indometacin solution in phosphate buffer solution ([3]; phosphate buffer solution, no cyclodextrin): 210 µg/mL
Increase of water solubility with the 2,6-di-O-methyl derivative of β-cyclodextrin [4]: 20.4 fold

CCC(C)n1ncn(-c2ccc(N3CCN(c4ccc(OCC5COC(Cn6cncn6)(c6ccc(Cl)cc6Cl)O5)cc4)CC3)cc2)c1=O (stereo not shown) [Itraconazole]
R, ratio of saturation solubility with and without β-cyclodextrin derivative ([1]; pH 2.5): 75
R, ratio of saturation solubility with and without β-cyclodextrin derivative ([1]; pH 5): 96

CC(=O)N1CCN(c2ccc(OCC3COC(Cn4ccnc4)(c4ccc(Cl)cc4Cl)O3)cc2)CC1 (stereo not shown) [Ketoconazole]
R, ratio of saturation solubility with and without β-cyclodextrin derivative [1]: 85

C[C@@H]1CN([C@H]2CC[C@](C#N)(c3ccc(F)cc3)CC2)CC[C@]1(C(=O)O)c1ccccc1 [Levocabastine]
R, ratio of saturation solubility with and without β-cyclodextrin derivative ([1]; pH 7.4): 8
R, ratio of saturation solubility with and without β-cyclodextrin derivative ([1]; pH 9.5): 81

CN(C)C(=O)C(CCN1CCC(O)(c2ccc(Cl)cc2)CC1)(c1ccccc1)c1ccccc1 [Loperamide]
R, ratio of saturation solubility with and without β-cyclodextrin derivative [2]: 62

CC(=O)[C@H]1CC[C@H]2[C@@H]3CCC4=CC(=O)CC[C@]4(C)[C@H]3CC[C@]12C [Progesterone]
solubility at 24 h (physchem; pH 6.6, aqueous buffer): 7.1 µg/mL (≈ 0.0226 mM)
solubility at 24 h (physchem; [7]): 7690 µg/mL (≈ 24.5 mM)
Ratio S1:S2 (physchem): 1:1083.0

CCOC(=O)Nc1ccc(SC[C@@H]2CO[C@@](Cn3ccnc3)(c3ccc(Cl)cc3Cl)O2)cc1 [Tubulazole]
R, ratio of saturation solubility with and without β-cyclodextrin derivative [2]: 43

CC(=O)O[C@]1(C(C)=O)CC[C@H]2[C@@H]3C[C@H](C)C4=CC(=O)CC[C@]4(C)[C@H]3CC[C@@]21C [medroxyprogesterone acetate]
Dissolution rate, times higher than tablet without β-cyclodextrin ether [5]: 21 times

OC[C@H]1O[C@@H]2O[C@H]3[C@H](O)[C@@H](O)[C@@H](O[C@H]4[C@H](O)[C@@H](O)[C@@H](O[C@H]5[C@H](O)[C@@H](O)[C@@H](O[C@H]6[C@H](O)[C@@H](O)[C@@H](O[C@H]7[C@H](O)[C@@H](O)[C@@H](O[C@H]8[C@H](O)[C@@H](O)[C@@H](O[C@H]1[C@H](O)[C@H]2O)O[C@@H]8CO)O[C@@H]7CO)O[C@@H]6CO)O[C@@H]5CO)O[C@@H]4CO)O[C@@H]3CO [β-cyclodextrin]
Water solubility [6]: 1.8 g/100 ml
LD50 in rats (i.v.) (rats): 453 mg/kg bodyweight

dimethyl-β-cyclodextrin [dimethyl-β-cyclodextrin (DS 2.0)]
C50%, concentration at which 50% haemolysis occurred (human red blood cells): 0.33%
C100%, concentration at which 100% haemolysis occurred (human red blood cells): 0.5%
LD50 in rats (i.v.) (rats): 200-207 mg/kg bodyweight
